Experimental data from ChEMBL document CHEMBL1143885, “Aryl-indolyl maleimides as inhibitors of CaMKIIdelta. Part 1: SAR of the aryl region” (Bioorg Med Chem Lett, 2008).
pIC50: −log10 of the molar value.

These compounds were tested against Calcium/calmodulin-dependent protein kinase type II subunit delta (Homo sapiens, UniProt Q13557) (assay: Inhibition of CaMK2delta).
Calcium/calmodulin-dependent protein kinase type II subunit delta, sequence (Q13557 whole entry): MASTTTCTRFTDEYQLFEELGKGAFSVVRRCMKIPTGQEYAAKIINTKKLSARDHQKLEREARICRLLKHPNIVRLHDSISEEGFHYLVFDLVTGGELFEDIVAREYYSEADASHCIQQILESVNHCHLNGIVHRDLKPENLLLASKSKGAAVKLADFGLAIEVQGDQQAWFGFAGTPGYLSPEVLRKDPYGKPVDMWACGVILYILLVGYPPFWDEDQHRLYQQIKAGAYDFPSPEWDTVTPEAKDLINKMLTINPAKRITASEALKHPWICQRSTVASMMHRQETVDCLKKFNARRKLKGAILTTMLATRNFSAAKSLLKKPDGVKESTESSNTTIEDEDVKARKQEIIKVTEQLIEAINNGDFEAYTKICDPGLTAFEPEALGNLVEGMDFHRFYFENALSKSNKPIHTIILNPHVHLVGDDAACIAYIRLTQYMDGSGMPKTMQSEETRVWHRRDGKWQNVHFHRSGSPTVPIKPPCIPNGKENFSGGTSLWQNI

Compound	pIC50
NCCCn1cc(C2=C(c3ccc4ccccc4c3)C(=O)NC2=O)c2ccccc21	6.30
CC(C)(C)OC(=O)NCCCn1cc(C2=C(c3csc4ccccc34)C(=O)NC2=O)c2ccccc21	< 4.70
CN1C(=O)C(c2csc3ccccc23)=C(c2cn(CCCN)c3ccccc23)C1=O	5.63
NCCCn1cc(C2=C(c3cccc(Oc4ccccc4)c3)C(=O)NC2=O)c2ccccc21	5.77
CC(C)(C)OC(=O)NCCCn1cc(C2=C(c3cccs3)C(=O)NC2=O)c2ccccc21	< 4.70
NCCCn1cc(C2=C(c3ccncc3)C(=O)NC2=O)c2ccccc21	5.80
NCCCn1cc(C2=C(c3ccnc4ccccc34)C(=O)NC2=O)c2ccccc21	6.20
NCCCn1cc(C2=C(c3ccccn3)C(=O)NC2=O)c2ccccc21	5.80
NCCCn1cc(C2=C(c3ccco3)C(=O)NC2=O)c2ccccc21	5.83
CN1C(=O)C(c2c[nH]c3ccc(Br)cc23)=C(c2cn(CCCN)c3ccccc23)C1=O	< 4.70
Cc1cccc(C2=C(c3cn(CCCN)c4ccccc34)C(=O)NC2=O)c1	6.55
NCCCn1cc(C2=C(c3ccc4ccccc4n3)C(=O)NC2=O)c2ccccc21	< 4.70
NCCCn1cc(C2=C(c3cccs3)C(=O)NC2=O)c2ccccc21	5.92
NCCCn1cc(C2=C(c3cccc(-c4ccccc4)c3)C(=O)NC2=O)c2ccccc21	5.88
Cc1[nH]c2ccccc2c1C1=C(c2cn(CCCNC(=O)OC(C)(C)C)c3ccccc23)C(=O)NC1=O	5.12
NCCCn1cc(C2=C(c3cccnc3)C(=O)NC2=O)c2ccccc21	6.27
NCCCn1cc(C2=C(c3cccc4ccccc34)C(=O)NC2=O)c2ccccc21	6.54
CN1C(=O)C(c2ccccc2)=C(c2cn(CCCN)c3ccccc23)C1=O	4.82
